Measured values as given in patent publication US20250361486A1, “METHOD FOR CULTURING CELLS REQUIRING A SUPPLY OF IRON” (SAFI BIOTHERAPEUTICS INC., priority 2022, published 2025).

What was measured:
[1] = test system: cultured red blood cells; test: Cell losses at end of red blood cell perfusion culture; type: cell-based; conditions: Trolox approximately 100 μM in culture medium, perfusion bioreactor step D7 to D22; average of 6 cultures; 13% loss without Trolox
Procedure: (§1) Cultured red blood cell production was performed with and without the addition of Trolox during the perfusion bioreactor culture step of the process described below.
(§2) Briefly, the cells cultured according to the invention are total nucleated cells collected by cytapheresis from volunteer donors previously mobilised with G-CSF.
(§3) A first step of the process according to the invention is carried out over 7 days (from D1 to D7) in fed-batch at a temperature of 37° C., under an atmosphere of 5% CO2 and in a culture medium adapted from that described by Giarratana et al. (2011) “Proof of principle for transfusion of in vitro-generated red blood cells”, Blood 118:5071-5079 for the first step of the expansion procedure described in the article (page 5072). Halfway through this step, fresh culture medium is added to the culture so as to dilute the culture by half (the same volume of culture medium is added as the volume initially present). […]
Fifteen cultures were performed (9 without Trolox and 6 with Trolox) and cell losses were measured at the end of the culture, defined as the % decrease in cell concentration between the peak cell concentration and the day the culture was stopped (2 to 3 days later).

[2] = test system: cultured red blood cells; test: Preservation yield of cultured red blood cells after 28 days in a preservation solution; type: cell-based; conditions: culture conducted with Trolox approximately 100 μM; red blood cells stored for 28 days in a preservation solution; 63% without Trolox
Procedure: as §1, §2, §3
Furthermore, the red blood cells from the above cultures were stored for 28 days in a preservation solution and the preservation efficiency at the end of the preservation period was determined [100×(final red blood cell count/mL)/(initial red blood cell count/mL].

Cc1c(C)c2c(c(C)c1O)CCC(C)(C(=O)O)O2 (centres unmarked) [Trolox, 3,4-dihydro-6-hydroxy-2,5,7,8-tetramethyl-2H-I-benzopyran-2-carboxylic acid]
cell losses at the end of culture (% decrease in cell concentration between peak cell concentration and day culture was stopped) [1]: 6% | average conservation yield [100×(final red blood cell count/mL)/(initial red blood cell count/mL)] [2]: 77%
